The text below walks through data of US20250249113A1, “LIGAND-DRUG-CONJUGATES WITH IMPROVED PHARMACOKINETIC AND DRUG RELEASE PROPERTIES” (Debiopharm Research & Manufacturing S.A., priority 2022, published 2025).

Where a SMILES comes first, the peptide text is derived from it. Side-chain parts run from the residue outwards. [ ]: non-standard residue; d: D form. The star is where a group is joined. DM1Mal(CH2)2CO = COc1cc2cc(c1Cl)N(C)C(=O)C[C@H](OC(=O)[C@H](C)N(C)C(=O)CCSC1CC(=O)N(CCC(=O)*)C1=O)[C@]1(C)O[C@H]1[C@H](C)[C@@H]1C[C@@](O)(NC(=O)O1)[C@H](OC)/C=C/C=C(\C)C2; X1 = CC(=O)N[C@@H](CSC1CC(=O)N(CCC(=O)*)C1=O)C(=O)O; Dolaproine = CO[C@@H]([C@@H]1CCCN1)[C@@H](C)C(=O)O; Dil = CC[C@H](C)[C@H](NC)[C@@H](CC(=O)O)OC; NMe2Val = CC(C)[C@@H](C(=O)*)N(C)C; PEG5 = NCCOCCOCCOCCOCCOCCC(=O)O; Cit = NC(=O)NCCC[C@H](N)C(=O)O; PEG4 = NCCOCCOCCOCCOCCC(=O)O

For data set [1], the target named is T1, Cathepsin B (Homo sapiens, UniProt P07858).
T1 construct: purchased R&D Systems, Bio-Techne AG 953-CY-010
Description: Cat B-induced cleavage study (in vitro enzymatic cleavage assay, UHPLC-MS/MS). The class given is biochemical. To be noted: for Ratio (T1/2 Compound/T1/2 Reference): reference: Cys-MC-Val-Cit-PABC-MMAF; for half-life at 10 μM: human, recombinant human Cathepsin B, 10 μM compound, Cathepsin B 2 μg/mL, 25 mM MES buffer pH 5.0, 37° C., read-out: T1/2 Compound. On the procedure: (§1) The propensity of compounds 1-13 to be cleaved by Cathepsin B—was evaluated according to an in vitro enzymatic cleavage assay using recombinant human Cathepsin B and UHPLC-MS/MS analysis as described below.
(§2) Reference compounds Cys-MC-Val-Cit-PABC-MMAF and MMAF were used as positive controls. The enzyme was reconstituted in 25 mM MES buffer adjusted at pH 5.0 with a 1M NaOH solution and then activated with a […] solution of DDT at room temperature for at least 15 min.
(§3) The in vitro enzymatic assay was conducted at 37° C. with the test compounds at a concentration of 10 μM (2.5 μM when the test compound is an antibody-drug conjugate) in the presence of activated recombinant human Cathepsin B enzyme at 2 μg/mL in a 25 mM MES buffer pH 5.0. The enzymatic cleavage reaction was stopped for each defined time point by mixing an equal volume of acetonitrile+0.1% FA containing an internal standard (warfarine at 8 μM).
(§4) Analysis was conducted using a Waters Acquity UPLC System coupled to a Waters Xevo TQ triple quad mass spectrometer. UHPLC was conducted depending on the test compounds with a BEH C8 1.7 μm 100×2.1 mm or BEH C18 1.7 μm 50×2.1 mm or HSS T3 1.7 μm 50×2.1 mm columns heated at 45° C. or 50° C. and fitted with 2 μm insert filter pre-columns (available from Waters), and solvent systems A1 (H2O+0.1% FA) and B1 (acetonitrile+0.1% FA) at a flow rate of 0.6 mL/min and a 10-95% gradient of B1 over 1.9 min.
(§5) MS/MS was performed using electrospray ionization (ESI) interface in positive mode and specific MRM transitions for each tested compound.

For data set [2], the target named is T2, Cathepsin B (exo-Cat B cleavage) (Homo sapiens, UniProt P07858).
T2 construct: purchased R&D Systems, Bio-Techne AG 953-CY-010
The data set is described as above. The class given is biochemical. To be noted: human, recombinant human Cathepsin B, pH 5; read-out: T1/2 (cleavage by exo-Cat B). On the procedure: as §1, §2, §3, §4, §5

The nature of data set [3]: DRF toxicity study of DM1-Ac-Cit and DM1-Ac-Cit-Lys(Cys-ma-Lys(PEG16))-Tyr-OH, 2 intravenous bolus injections (Day 1 and Day 8), female mice. The format is in vivo, mouse. To be noted: for related mortalities, clinical observations or effects on body weights and food consumption / related ophthalmic findings or changes in clinical pathology parameters / related organ weight changes, macroscopic and microscopic findings: DM1-Ac-Cit 0.15, 0.68 or 1.4 mg/kg/adm, DM1-Ac-Cit-Lys(Cys-ma-Lys(PEG16))-Tyr-OH 3.5 mg/kg/adm, 2 i.v. injections. On the procedure: The objectives of this study were to determine the potential toxicity of Multilink-DM1-Ac-Cit and DM1-Ac-Cit-Lys(Cys-ma-Lys(PEG16))-Tyr-OH when administered intravenously (via bolus injection).
2 injections of the same dose of either DM1-Ac-Cit ((test item 1) at 0.15, 0.68 or 1.4 mg/kg/adm) or 2 injections of the same dose of DM1-Ac-Cit-Lys(Cys-ma-Lys(PEG16))-Tyr-OH ((test item 2) at 3.5 mg/kg/adm were administered separately (on Day 1 and Day 8 (7-day interval) to CD-1® IGS mice, and the reversibility and/or delayed occurrence of any findings were evaluated during a 10-day observation period. In addition, the toxicokinetic characteristics of DM1-Ac-Cit-Lys(Cys-ma-Lys(PEG16))-Tyr-OH, DM1-Ac-Cit, and the catabolite DM1 were determined.
A control group received the Vehicle Control 1: 8% Ethanol/8% Polysorbate (Tween*) 80/PBS 84%.
The study design was as follows:
The following parameters and end points were evaluated in this study: mortality, clinical observations, body weights, food consumption, ophthalmology, clinical pathology parameters (hematology and clinical chemistry), toxicokinetic parameters, organ weights, and macroscopic and microscopic examinations.

`CC[C@H](C)[C@@H]([C@@H](CC(=O)N1CCC[C@H]1[C@H](OC)[C@@H](C)C(=O)N[C@@H](Cc1ccccc1)C(=O)N[C@@H](CCCNC(=N)N)C(=O)N[C@@H](Cc1ccccc1)C(=O)N[C@@H](CCCCNC(=O)CCOCCOCCOCCOCCNC(=O)CCN1C(=O)CC(SC[C@H](NC(C)=O)C(=O)O)C1=O)C(=O)O)OC)N(C)C(=O)[C@@H](NC(=O)[C@H](C(C)C)N(C)C)C(C)C` (stereo partly drawn) [Compound 3, AF-Arg-Phe-Lys(PEG4-Mal-Cys-Ac)-OH] (NMe2Val-V[Dil][Dolaproine]FRFK([PEG4-X1])-OH; N-terminus assumed): the “Ratio (T1/2 Compound/T1/2 Reference)” value in data set [1] stood at 0.11.

With `COc1cc2cc(c1Cl)N(C)C(=O)C[C@H](OC(=O)[C@H](C)N(C)C(=O)CCSC1CC(=O)N(CCC(=O)N[C@@H](Cc3ccccc3)C(=O)N[C@@H](CCCNC(N)=O)C(=O)N[C@@H](Cc3ccccc3)C(=O)N[C@@H](CCCCNC(=O)CCOCCOCCOCCOCCNC(=O)CCN3C(=O)CC(SC[C@H](NC(C)=O)C(=O)O)C3=O)C(=O)O)C1=O)[C@]1(C)O[C@H]1[C@H](C)[C@@H]1C[C@@](O)(NC(=O)O1)[C@H](OC)/C=C/C=C(\C)C2` (stereo partly drawn) [Compound 7, DM1-Mal-Phe-Cit-Phe-Lys(PEG4-Mal-Cys-Ac)-OH] ({DM1Mal(CH2)2CO}-F[Cit]FK([PEG4-X1])-OH; N-terminus assumed), in data set [1], the half-life at 10 μM came to 72 s and the “Ratio (T1/2 Compound/T1/2 Reference)” value is listed as 0.09.

Turning to `COc1cc2cc(c1Cl)N(C)C(=O)C[C@H](OC(=O)[C@H](C)N(C)C(=O)CCSC1CC(=O)N(CCC(=O)N[C@@H](Cc3ccccc3)C(=O)N[C@@H](CCCCN)C(=O)N[C@@H](CCCCNC(=O)CCOCCOCCOCCOCCNC(=O)CCN3C(=O)CC(SC[C@H](NC(C)=O)C(=O)O)C3=O)C(=O)N[C@@H](Cc3ccccc3)C(=O)O)C1=O)[C@]1(C)O[C@H]1[C@H](C)[C@@H]1C[C@@](O)(NC(=O)O1)[C@H](OC)/C=C/C=C(\C)C2` (stereo partly drawn) [Compound 5, DM1-Mal-Phe-Lys-Lys(PEG4-Mal-Cys-Ac)-Phe-OH] ({DM1Mal(CH2)2CO}-FKK([PEG4-X1])F-OH; N-terminus assumed), in data set [1], the “Cat B-induced drug release, faster as compared to reference Cys-MC-Val-Cit-PABC-MMAF” value amounted to 20 times; the half-life at 10 μM amounted to 36 s; the “Ratio (T1/2 Compound/T1/2 Reference)” value amounted to 0.05.

For `COc1cc2cc(c1Cl)N(C)C(=O)C[C@H](OC(=O)[C@H](C)N(C)C(=O)CCSC1CC(=O)N(CC3CCC(C(=O)N[C@@H](Cc4ccccc4)C(=O)N[C@@H](CCCNC(N)=O)C(=O)N[C@@H](CCCCNC(=O)CCOCCOCCOCCOCCOCCNC(=O)CN4C(=O)CC(SC[C@H](NC(C)=O)C(=O)O)C4=O)C(=O)N[C@@H](Cc4ccc(O)cc4)C(=O)O)CC3)C1=O)[C@]1(C)O[C@H]1[C@H](C)[C@@H]1C[C@@](O)(NC(=O)O1)[C@H](OC)/C=C/C=C(\C)C2` (stereo partly drawn) [Compound 11, DM1-Mcc-Phe-Cit-Lys(PEG5-Ma-Cys-Ac)-Tyr-OH], the half-life in data set [2] is not above 60 s. In data set [1], the half-life at 10 μM was determined as 3.6 s and the “Ratio (T1/2 Compound/T1/2 Reference)” value was 0.005.

With `COc1cc2cc(c1Cl)N(C)C(=O)C[C@H](OC(=O)[C@H](C)N(C)C(=O)CCSC1CC(=O)N(CC3CCC(C(=O)N[C@@H](CCCNC(N)=O)C(=O)N[C@@H](CCCCNC(=O)CCOCCOCCOCCOCCOCCNC(=O)CN4C(=O)CC(SC[C@H](NC(C)=O)C(=O)O)C4=O)C(=O)N[C@@H](Cc4ccc(O)cc4)C(=O)O)CC3)C1=O)[C@]1(C)O[C@H]1[C@H](C)[C@@H]1C[C@@](O)(NC(=O)O1)[C@H](OC)/C=C/C=C(\C)C2` (stereo partly drawn) [Compound 12, DM1-Mcc-Cit-Lys(PEG5-Ma-Cys-Ac)-Tyr-OH], the half-life in data set [2] is not above 60 s. Further, in data set [1], the “Ratio (T1/2 Compound/T1/2 Reference)” value was found to be 0.00004.

Take “DM1-Ac-Cit-Lys(Cys-ma-Lys(PEG16))-Tyr-OH”: the tolerability result in data set [3] (2 i.v. bolus injections at 7-day interval at 3.5 mg/kg/adm) was “well tolerated”. In addition, in data set [3], the “related mortalities, clinical observations or effects on body weights and food consumption” value is on record as “no”; the “related ophthalmic findings or changes in clinical pathology parameters” value is “no”; the “related organ weight changes, macroscopic and microscopic findings” value is “no macroscopic and microscopic findings”.

As for `CC[C@H](C)[C@@H]([C@@H](CC(=O)N1CCC[C@H]1[C@H](OC)[C@@H](C)C(=O)N[C@@H](Cc1ccccc1)C(=O)N[C@@H](CCCNC(=N)N)C(=O)N[C@@H](CCCCNC(=O)CCOCCOCCOCCOCCOCCNC(=O)CCN1C(=O)CC(SC[C@H](NC(C)=O)C(=O)O)C1=O)C(=O)N[C@@H](Cc1ccccc1)C(=O)O)OC)N(C)C(=O)[C@@H](NC(=O)[C@H](C(C)C)N(C)C)C(C)C` (stereo partly drawn) [Compound 1, AF-Arg-Lys(PEG4-Mal-Cys-Ac)-Phe-OH] (NMe2Val-V[Dil][Dolaproine]FRK([PEG5-X1])F-OH; N-terminus assumed), in data set [1], the “Ratio (T1/2 Compound/T1/2 Reference)” value was 0.12.

For `CC[C@H](C)[C@@H]([C@@H](CC(=O)N1CCC[C@H]1[C@H](OC)[C@@H](C)C(=O)N[C@@H](Cc1ccccc1)C(=O)N[C@@H](CCCNC(N)=O)C(=O)N[C@@H](CCCCNC(=O)CCOCCOCCOCCOCCNC(=O)CCN1C(=O)CC(SC[C@H](NC(C)=O)C(=O)O)C1=O)C(=O)N[C@@H](Cc1ccccc1)C(=O)O)OC)N(C)C(=O)[C@@H](NC(=O)[C@H](C(C)C)N(C)C)C(C)C` (stereo partly drawn) [Compound 8, AF-Cit-Lys(PEG4-Mal-Cys-Ac)-Phe-OH] (NMe2Val-V[Dil][Dolaproine]F[Cit]K([PEG4-X1])F-OH; N-terminus assumed), the “Ratio (T1/2 Compound/T1/2 Reference)” value in data set [1] amounted to 0.09.

With DM1-Ac-Cit, the tolerability result in data set [3] (2 i.v. bolus injections at 7-day interval at 0.15, 0.68, and 1.4 mg/kg/adm, female CD-1 mice) is “well tolerated”. Besides, in data set [3], the “related mortalities, clinical observations or effects on body weights and food consumption” value is “no”; the “related ophthalmic findings or changes in clinical pathology parameters” value is on record as “no”; the “related organ weight changes, macroscopic and microscopic findings” value is “no macroscopic and microscopic findings”. Besides, the “no observed adverse effect level (NOAEL)” value in data set [3] (DM1-Ac-Cit, 2 i.v. bolus injections at 7-day interval, female CD-1 mice) is reported as 1.4 mg/kg/adm.

On to `COc1cc2cc(c1Cl)N(C)C(=O)C[C@H](OC(=O)[C@H](C)N(C)C(=O)CCSC1CC(=O)N(CCC(=O)N[C@@H](Cc3ccccc3)C(=O)N[C@@H](CCCNC(N)=O)C(=O)N[C@@H](CCCCNC(=O)CCOCCOCCOCCOCCNC(=O)CCN3C(=O)CC(SC[C@H](NC(C)=O)C(=O)O)C3=O)C(=O)N[C@@H](Cc3ccccc3)C(=O)O)C1=O)[C@]1(C)O[C@H]1[C@H](C)[C@@H]1C[C@@](O)(NC(=O)O1)[C@H](OC)/C=C/C=C(\C)C2` (stereo partly drawn) [Compound 6, DM1-Mal-Phe-Cit-Lys(PEG4-Mal-Cys-Ac)-Phe-OH] ({DM1Mal(CH2)2CO}-F[Cit]K([PEG4-X1])F-OH; N-terminus assumed), for which, in data set [1], the half-life at 10 μM stood at 18 s and the “Ratio (T1/2 Compound/T1/2 Reference)” value is listed as 0.02.
